According to US20150118179A1, “BIOCIDAL COMPOUNDS AND METHODS FOR USING SAME” (UNIVERSITY OF MANITOBA, priority 2012, published 2015):
Several values for one entry are separate records, joined by “and”; a condition that tells them apart may be missing. Equal entries are not always repeated.

Experiments:
[1] = tested on: P. aeruginosa 73104; assay: Biocidal activity in bacterial suspension (Example 18); type: cell-based, Pseudomonas aeruginosa; conditions: 15 ppm [Cl+]; for Reduction of P. aeruginosa: 10^6 cfu/mL P. aeruginosa, within 60 min of contact
Method: Logarithmic-phase cultures of P. aeruginosa were prepared by initially suspending several colonies in cation-supplemented Mueller-Hinton broth (Oxoid, Nepean, Ontario, Canada) at a density equivalent to a 0.5 McFarland standard (1×10^8 cfu/mL). This suspension was then diluted 1:100 and 20 μL of the diluted suspension was further diluted in 60 mL of cation-supplemented Mueller-Hinton broth. Following overnight growth at 37° C., suspensions were diluted 1:[…] to get inoculums of approximately 1×10^6 or 1×10^5 cfu/mL.
(§1) Biocidal activity of synthetic compounds was completed as followed. To 20 mL of bacterial suspension (10^5 or 10^6 cfu/mL) in a centrifuge tube was added 30 μL solution of synthetic compounds (0.282 M stock solution) to achieve a final [Cl^+] of 15 ppm. Timing of the exposure to the disinfectant was started immediately with the addition of the synthetic compound. After predetermined contact time, 1.0 mL aliquots were withdrawn and added to an equal volume of 0.02 N sodium thiosulfate in PBS (0.1 M, pH 7.4). The quenched suspension was serially diluted and 100 μL of each resulting dilution was placed onto nutrient agar plates. After being incubated at 37° C. for 24 hours, the viable bacterial colonies on the plates were counted. Bacterial reduction was reported according to:
(§2) Percentage reduction of bacteria (%)=(A−B)/A×100
(§3) Log reduction=Log(A/B) (4)
(§4) where A is the number of bacteria in the starting inoculum (cfu/mL), and B is the number of bacteria retrieved from synthetic compounds (cfu/mL).

[2] = tested on: CA-MRSA 40065; assay: as above; type: cell-based, Staphylococcus aureus; conditions: 15 ppm [Cl+]
Method: Logarithmic-phase cultures of MRSA were prepared using similar way except TSA broth was used instead.
as §1, §2, §3, §4

[3] = Table 4, contact 3 min, inoculum 2.26-2.98 × 10^5 CFU/mL
[4] = Table 4, contact 5 min, inoculum 2.26-2.98 × 10^5 CFU/mL
[5] = Table 4, contact 10 min, inoculum 2.26-2.98 × 10^5 CFU/mL
[6] = Table 4, contact 20 min, inoculum 2.26-2.98 × 10^5 CFU/mL
[7] = Table 4, contact 30 min, inoculum 2.26-2.98 × 10^5 CFU/mL
[8] = Table 4, contact 45 min, inoculum 2.26-2.98 × 10^5 CFU/mL
[9] = Table 4, contact 60 min, inoculum 2.26-2.98 × 10^5 CFU/mL
[10] = Table 5, contact 3 min, inoculum 2.83 × 10^6 cfu/mL
[11] = Table 5, contact 5 min, inoculum 2.83 × 10^6 cfu/mL
[12] = Table 5, contact 10 min, inoculum 2.83 × 10^6 cfu/mL
[13] = Table 5, contact 20 min, inoculum 2.83 × 10^6 cfu/mL
[14] = Table 5, contact 30 min, inoculum 2.83 × 10^6 cfu/mL
[15] = Table 5, contact 45 min, inoculum 2.83 × 10^6 cfu/mL
[16] = Table 5, contact 60 min, inoculum 2.83 × 10^6 cfu/mL
[17] = Table 3, contact 3 min, inoculum 2.26 × 10^5 CFU/mL
[18] = Table 3, contact 5 min, inoculum 2.26 × 10^5 CFU/mL
[19] = Table 3, contact 10 min, inoculum 2.26 × 10^5 CFU/mL
[20] = Table 3, contact 60 min, inoculum 2.26 × 10^5 CFU/mL
[21] = Table 3, contact 90 min, inoculum 2.26 × 10^5 CFU/mL
[22] = Table 2, contact 3 min, inoculum 1.57-1.75 × 10^6 CFU/mL
[23] = Table 2, contact 5 min, inoculum 1.57-1.75 × 10^6 CFU/mL
[24] = Table 2, contact 10 min, inoculum 1.57-1.75 × 10^6 CFU/mL
[25] = Table 2, contact 60 min, inoculum 1.57-1.75 × 10^6 CFU/mL
[26] = Table 2, contact 1 min, inoculum 1.57-1.75 × 10^6 CFU/mL

In the case of `CCCCCCCCCCCC[N+](C)(C)CCn1cc(C[N+](C)(C)CCCN2C(=O)NC(C)(C)C2=O)nn1` [Compound 15], the Bacteria reduction % [1, 3] was 75.7%, the “Bacteria reduction Log” value [1, 3] was 0.74 Log and the Bacteria reduction % [1, 4] was 98.4%. The “Bacteria reduction Log” value [1, 4] was 1.88 Log, the Bacteria reduction % [1, 5] was 99.9% and the “Bacteria reduction Log” value [1, 5] was 3.02 Log. The Bacteria reduction % [1, 6] was 99.97%, the “Bacteria reduction Log” value [1, 6] was 4.32 Log and the Bacteria reduction % [1, 7] was 100%. The “Bacteria reduction Log” value [1, 7] was 5.47 Log, the Bacteria reduction % [1, 8] was 100% and the “Bacteria reduction Log” value [1, 8] was 5.47 Log. For the same compound, the Bacteria reduction % [1, 9] was 100%, the “Bacteria reduction Log” value [1, 9] was 5.47 Log and the Bacteria reduction % [2, 10] was 86.9%. For the same compound, the Bacteria reduction % [2, 11] was 79.5%, the “Bacteria reduction Log” value [2, 11] was 0.69 Log and the Bacteria reduction % [2, 12] was 85.1%. The “Bacteria reduction Log” value [2, 12] was 0.83 Log, the Bacteria reduction % [2, 13] was 67.8% and the “Bacteria reduction Log” value [2, 13] was 0.49 Log. The Bacteria reduction % [2, 14] was 79.8%, the “Bacteria reduction Log” value [2, 14] was 0.70 Log and the Bacteria reduction % [2, 15] was 92.6%. For the same compound, the “Bacteria reduction Log” value [2, 15] was 1.13 Log, the Bacteria reduction % [2, 16] was 87.3% and the “Bacteria reduction Log” value [2, 16] was 0.89 Log. The Bacteria reduction % ([2]; independent of contact duration (3-60 minutes)) was “around 80%”.
With `CCCCCCCCCCCC[N+](C)(C)CCn1cc(C[N+](C)(C)CCCN2C(=O)N(Cl)C(C)(C)C2=O)nn1` [Compound 16] the Bacteria reduction % [1, 3] was 99.6%, the “Bacteria reduction Log” value [1, 3] was 2.62 Log and the Bacteria reduction % [1, 4] was 99.97%. For the same compound, the “Bacteria reduction Log” value [1, 4] was 4.32 Log, the Bacteria reduction % [1, 5] was 100% and the “Bacteria reduction Log” value [1, 5] was 5.47 Log. The Bacteria reduction % [1, 6] was 100%, the “Bacteria reduction Log” value [1, 6] was 5.47 Log and the Bacteria reduction % [1, 7] was 100%. The “Bacteria reduction Log” value [1, 7] was 5.47 Log, the Bacteria reduction % [1, 8] was 100% and the “Bacteria reduction Log” value [1, 8] was 5.47 Log. The Bacteria reduction % [1, 9] was 100%, the “Bacteria reduction Log” value [1, 9] was 5.47 Log and the Bacteria reduction % [2, 10] was 84.4%. The Bacteria reduction % [2, 11] was 93.4%, the “Bacteria reduction Log” value [2, 11] was > 1 Log and 1.18 Log and the Bacteria reduction % [2, 12] was 99.8%. The “Bacteria reduction Log” value [2, 12] was 2.77 Log, the Bacteria reduction % [2, 13] was 100% and the “Bacteria reduction Log” value [2, 13] was 6.45 Log. For the same compound, the Bacteria reduction % [2, 14] was 100%, the “Bacteria reduction Log” value [2, 14] was 6.45 Log and the Bacteria reduction % [2, 15] was 100%. The “Bacteria reduction Log” value [2, 15] was 6.45 Log, the Bacteria reduction % [2, 16] was 100% and the “Bacteria reduction Log” value [2, 16] was 6.45 Log.
`CC1(C)C(=O)N(CCC[N+](C)(C)CC[N+](C)(C)C)C(=O)N1Cl.[Cl-].[Cl-]` [Compound 12] was tested, and the “Reduction of P. aeruginosa” value [1] was “cannot bring any significant reduction”, the Bacteria reduction % [1, 17] was 39.8 ± 10.0% and the Bacteria reduction % [1, 18] was 44.7 ± 1.9%. The “Bacteria reduction Log10” value [1, 19] was 0.43 ± 0.01 Log10, the Bacteria reduction % [1, 20] was 100% and the “Bacteria reduction Log10” value [1, 20] was 5.35 Log10. The Bacteria reduction % [1, 21] was 100%, the “Bacteria reduction Log10” value [1, 21] was 5.35 Log10 and the Bacteria reduction % [1, 3] was 39.8%. The “Bacteria reduction Log” value [1, 3] was 0.22 Log, the Bacteria reduction % [1, 4] was 44.7% and the “Bacteria reduction Log” value [1, 4] was 0.26 Log. For the same compound, the Bacteria reduction % [1, 5] was 62.8%, the “Bacteria reduction Log” value [1, 5] was 0.43 Log and the Bacteria reduction % [1, 6] was 99.70%. The “Bacteria reduction Log” value [1, 6] was 2.50 Log, the Bacteria reduction % [1, 7] was 100% and the “Bacteria reduction Log” value [1, 7] was 4.82 Log. The Bacteria reduction % [1, 8] was 100%, the “Bacteria reduction Log” value [1, 8] was 5.47 Log and the Bacteria reduction % [1, 9] was 100%. The “Bacteria reduction Log” value [1, 9] was 5.47 Log, the Bacteria reduction % [2, 22] was 88.0% and the “Bacteria reduction Log10” value [2, 22] was 0.92 Log10. The Bacteria reduction % [2, 23] was 92.3%, the “Bacteria reduction Log10” value [2, 23] was 0.92 Log10 and the Bacteria reduction % [2, 24] was 94.2%. For the same compound, the “Bacteria reduction Log10” value [2, 24] was 1.24 Log10, the Bacteria reduction % [2, 25] was 99.5% and the “Bacteria reduction Log10” value [2, 25] was 2.31 Log10.
With `CC1(C)C(=O)N(CCC[N+](C)(C)CCCN2C(=O)N(Cl)C(C)(C)C2=O)C(=O)N1Cl.[Cl-]` [Compound 14] the “Reduction of P. aeruginosa” value [1] was “cannot bring any significant reduction”, the Bacteria reduction % [1, 17] was 22.6 ± 4.4% and the Bacteria reduction % [1, 18] was 24.8 ± 10.0%. For the same compound, the Bacteria reduction % [1, 19] was 26.6% and 26.6 ± 12.5%, the “Bacteria reduction Log10” value [1, 19] was 0.14 ± 0.07 Log10 and the Bacteria reduction % [1, 20] was 100%. For the same compound, the “Bacteria reduction Log10” value [1, 20] was 5.35 Log10, the Bacteria reduction % [1, 21] was 100% and the “Bacteria reduction Log10” value [1, 21] was 5.35 Log10. The Bacteria reduction % [1, 3] was 22.6%, the “Bacteria reduction Log” value [1, 3] was 0.11 Log and the Bacteria reduction % [1, 4] was 24.8%. The “Bacteria reduction Log” value [1, 4] was 0.13 Log, the Bacteria reduction % [1, 5] was 26.6% and the “Bacteria reduction Log” value [1, 5] was 0.14 Log. The Bacteria reduction % [1, 6] was 70.8%, the Bacteria reduction % [1, 7] was 99.96% and the “Bacteria reduction Log” value [1, 7] was 3.39 Log. For the same compound, the Bacteria reduction % [1, 8] was 100%, the “Bacteria reduction Log” value [1, 8] was 5.47 Log and the Bacteria reduction % [1, 9] was 100%. The “Bacteria reduction Log” value [1, 9] was 5.47 Log, the Bacteria reduction % [2, 26] was 85.8% and the “Bacteria reduction Log10” value [2, 26] was 0.85 Log10. The Bacteria reduction % [2, 22] was 79.1%, the “Bacteria reduction Log10” value [2, 22] was 0.68 Log10 and the Bacteria reduction % [2, 23] was 64.3%. The “Bacteria reduction Log10” value [2, 23] was 0.45 Log10, the Bacteria reduction % [2, 24] was 91.9% and the “Bacteria reduction Log10” value [2, 24] was 1.09 Log10. For the same compound, the Bacteria reduction % [2, 25] was 99.5% and the “Bacteria reduction Log10” value [2, 25] was 2.32 Log10.
